Assay results published in patent publication US8686044B2, “Amide derivative, pest control agent containing the amide derivative, and use of the amide derivative” (Mitsui Chemicals Agro, Inc., priority 2008, dated 2014).

What was measured:
Type in all cases: in vivo
Spodoptera litura = test: Pesticidal test against Spodoptera litura (cabbage leaf dip); details: foliar, 144 h, 2-stage larvae, examined after 6 days, 25° C., read-out: pesticidal rate; for pest or weed control at 1 ppm: concentration 1 ppm; for pest or weed control at 10 ppm: concentration 10 ppm
Method in brief: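 Cabbage leaf pieces dipped 30 seconds in compound solution at a predetermined concentration and air-dried, then offered to second-stage larvae, five per group in two replicates. Held at 25° C. Living and dead larvae counted after 6 days.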

Laodelphax striatellus = test: Pesticidal test against Laodelphax striatellus (rice seedling spray); details: 144 h, concentration 100 ppm, 3-stage larvae, examined after 6 days, 25° C., read-out: pesticidal rate
Protocol: Pesticidal Test against Laodelphax striatellus
2.5 ml of an acetone solution in which a test compound had been prepared at a predetermined concentration was sprayed on rice seedlings, air-dried, and then put into a glass tube having a diameter of 3 cm and a height of 13 cm, having water therein, and 3-stage larvae of Laodelphax striatellus were released and the tube was capped. They were left to stand in a thermostatic chamber at 25° C., and the numbers of the living pests and the dead pests were examined after 6 days. The test was carried out with ten larvae per group in two replicates.

Plutella xylostella = test: Pesticidal test against Plutella xylostella (cabbage leaf dip); details: foliar, 144 h, 2-stage larvae, examined after 6 days, 25° C., read-out: pesticidal rate; for pest or weed control at 1 ppm: concentration 1 ppm; for pest or weed control at 10 ppm: concentration 10 ppm
Method in brief: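 Second-stage larvae (5 per group, two replicates) were released onto air-dried cabbage leaf discs that had been immersed for 30 seconds in compound solution at a set concentration. Mortality was scored after 6 days at 25° C.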

N#Cc1ccc(C(=O)Nc2cccc(C(=O)Nc3c(Br)cc(C(F)(C(F)(F)F)C(F)(F)F)cc3C(F)(F)C(F)(F)F)c2F)cc1 [6-5911, N-(2-bromo-6-(perfluoroethyl)-4-(perfluoropropan-2-yl)phenyl)-3-(4-cyanobenzamide)-2-fluorobenzamide]
≥ 70%: pest or weed control at 1 ppm (Spodoptera litura) | pest or weed control at 100 ppm (Laodelphax striatellus) | pest or weed control at 1 ppm (Plutella xylostella)

CN(C(=O)c1cccc(C#N)c1)c1cccc(C(=O)Nc2c(Br)cc(C(F)(C(F)(F)F)C(F)(F)F)cc2C(F)(F)F)c1 [7-288]
≥ 70%: pest or weed control at 1 ppm (Spodoptera litura) | pest or weed control at 100 ppm (Laodelphax striatellus) | pest or weed control at 1 ppm (Plutella xylostella)

CN(C(=O)c1ccc(C#N)cc1)c1cccc(C(=O)Nc2c(I)cc(C(F)(C(F)(F)F)C(F)(F)F)cc2C(F)(F)F)c1 [7-445]
≥ 70%: pest or weed control at 1 ppm (Spodoptera litura) | pest or weed control at 100 ppm (Laodelphax striatellus) | pest or weed control at 1 ppm (Plutella xylostella)

O=C(Nc1c(Br)cc(C(F)(F)C(F)(F)F)cc1C(F)(F)F)c1cccc(NC(=O)c2cccnc2Cl)c1 [6-5914]
≥ 70%: pest or weed control at 10 ppm (Spodoptera litura) | pest or weed control at 100 ppm (Laodelphax striatellus) | pest or weed control at 10 ppm (Plutella xylostella)

CN(C(=O)c1cccnc1)c1cccc(C(=O)Nc2c(Br)cc(C(F)(C(F)(F)F)C(F)(F)F)cc2C(F)(F)F)c1F [7-1608]
≥ 70%: pest or weed control at 1 ppm (Spodoptera litura) | pest or weed control at 100 ppm (Laodelphax striatellus) | pest or weed control at 1 ppm (Plutella xylostella)

CN(C(=O)c1cccnc1Cl)c1cccc(C(=O)Nc2c(Br)cc(C(F)(F)C(F)(F)F)cc2C(F)(F)F)c1 [7-5912]
≥ 70%: pest or weed control at 10 ppm (Spodoptera litura) | pest or weed control at 100 ppm (Laodelphax striatellus) | pest or weed control at 10 ppm (Plutella xylostella)

O=C(Nc1cccc(C(=O)Nc2c(Br)cc(C(F)(C(F)(F)F)C(F)(F)F)cc2OC(F)(F)F)c1F)c1cccnc1Cl [6-5908, N-(3-(2-bromo-4-(perfluoropropan-2-yl)-6-(trifluoromethoxy)phenylcarbamoyl)-2-fluorophenyl)-2-chloronicotinamide]
≥ 70%: pest or weed control at 1 ppm (Spodoptera litura) | pest or weed control at 100 ppm (Laodelphax striatellus) | pest or weed control at 1 ppm (Plutella xylostella)

CN(C(=O)c1cccnc1Cl)c1cccc(C(=O)N(C)c2c(Br)cc(C(F)(C(F)(F)F)C(F)(F)F)cc2C(F)(F)F)c1 [9-306]
≥ 70%: pest or weed control at 1 ppm (Spodoptera litura) | pest or weed control at 100 ppm (Laodelphax striatellus) | pest or weed control at 1 ppm (Plutella xylostella)

CN(C(=O)c1ccc(Cl)nc1)c1cccc(C(=O)Nc2c(Br)cc(C(F)(C(F)(F)F)C(F)(F)F)cc2C(F)(F)F)c1 [7-311]
≥ 70%: pest or weed control at 1 ppm (Spodoptera litura) | pest or weed control at 100 ppm (Laodelphax striatellus) | pest or weed control at 1 ppm (Plutella xylostella)

O=C(Nc1cccc(C(=O)Nc2c(Br)cc(C(F)(C(F)(F)F)C(F)(F)F)cc2C(F)(F)C(F)(F)F)c1F)c1ccccc1 [6-5910]
≥ 70%: pest or weed control at 1 ppm (Spodoptera litura) | pest or weed control at 100 ppm (Laodelphax striatellus) | pest or weed control at 1 ppm (Plutella xylostella)

CN(C(=O)c1ccccc1)c1cc(C(=O)Nc2c(Br)cc(C(F)(C(F)(F)F)C(F)(F)F)cc2C(F)(F)F)ccc1F [7-3348]
≥ 70%: pest or weed control at 1 ppm (Spodoptera litura) | pest or weed control at 100 ppm (Laodelphax striatellus) | pest or weed control at 1 ppm (Plutella xylostella)

CN(C(=O)c1cccnc1Cl)c1cccc(C(=O)Nc2c(Br)cc(C(F)(C(F)(F)F)C(F)(F)F)cc2Br)c1F [7-1140]
≥ 70%: pest or weed control at 1 ppm (Spodoptera litura) | pest or weed control at 100 ppm (Laodelphax striatellus) | pest or weed control at 1 ppm (Plutella xylostella)

CN(C(=O)c1cccnc1Cl)c1cccc(C(=O)Nc2c(I)cc(C(F)(C(F)(F)F)C(F)(F)C(F)(F)F)cc2I)c1F (stereo not drawn) [7-1374]
≥ 70%: pest or weed control at 1 ppm (Spodoptera litura) | pest or weed control at 100 ppm (Laodelphax striatellus) | pest or weed control at 1 ppm (Plutella xylostella)

CN(C(=O)c1cccnc1Cl)c1cccc(C(=O)Nc2c(C(F)(F)F)cc(C(F)(C(F)(F)F)C(F)(F)F)cc2C(F)(F)F)c1 [7-840]
≥ 70%: pest or weed control at 1 ppm (Spodoptera litura) | pest or weed control at 100 ppm (Laodelphax striatellus) | pest or weed control at 1 ppm (Plutella xylostella)

O=C(Nc1cccc(C(=O)Nc2c(I)cc(C(F)(C(F)(F)F)C(F)(F)C(F)(F)F)cc2I)c1)c1ccccc1 (stereo not drawn) [6-71]
≥ 70%: pest or weed control at 1 ppm (Spodoptera litura) | pest or weed control at 100 ppm (Laodelphax striatellus) | pest or weed control at 1 ppm (Plutella xylostella)

O=C(Nc1c(Br)cc(C(F)(C(F)(F)F)C(F)(F)F)cc1C(F)(F)F)c1cccc(NC(=O)c2cccnc2I)c1 [6-306]
≥ 70%: pest or weed control at 1 ppm (Spodoptera litura) | pest or weed control at 100 ppm (Laodelphax striatellus) | pest or weed control at 1 ppm (Plutella xylostella)

CN(C(=O)c1cccc(NC(=O)c2cccnc2Cl)c1)c1c(C(F)(F)F)cc(C(F)(C(F)(F)F)C(F)(F)F)cc1C(F)(F)F [8-840]
≥ 70%: pest or weed control at 1 ppm (Spodoptera litura) | pest or weed control at 100 ppm (Laodelphax striatellus) | pest or weed control at 10 ppm (Plutella xylostella)

O=C(Nc1cccc(C(=O)Nc2c(Br)cc(C(F)(C(F)(F)F)C(F)(F)F)cc2OC(F)(F)F)c1F)c1ccccc1 [6-5907]
≥ 70%: pest or weed control at 1 ppm (Spodoptera litura) | pest or weed control at 100 ppm (Laodelphax striatellus) | pest or weed control at 1 ppm (Plutella xylostella)

O=C(Nc1cccc(C(=O)Nc2c(Br)cc(C(F)(C(F)(F)F)C(F)(F)C(F)(F)F)cc2Br)c1F)c1ccc(Cl)nc1 (stereo not drawn) [6-1225]
≥ 70%: pest or weed control at 1 ppm (Spodoptera litura) | pest or weed control at 100 ppm (Laodelphax striatellus) | pest or weed control at 1 ppm (Plutella xylostella)

CN(C(=O)c1ccc(Cl)nc1)c1cccc(C(=O)Nc2c(Br)cc(C(F)(C(F)(F)F)C(F)(F)F)cc2Br)c1F [7-1147]
≥ 70%: pest or weed control at 1 ppm (Spodoptera litura) | pest or weed control at 100 ppm (Laodelphax striatellus) | pest or weed control at 1 ppm (Plutella xylostella)

CN(C(=O)c1ccc(F)cc1)c1cccc(C(=O)Nc2c(Br)cc(C(F)(C(F)(F)F)C(F)(F)C(F)(F)F)cc2Br)c1F (stereo not drawn) [7-1185]
≥ 70%: pest or weed control at 1 ppm (Spodoptera litura) | pest or weed control at 100 ppm (Laodelphax striatellus) | pest or weed control at 1 ppm (Plutella xylostella)

O=C(Nc1cccc(C(=O)Nc2c(I)cc(C(F)(C(F)(F)F)C(F)(F)F)cc2C(F)(F)F)c1F)c1cccnc1Cl [6-1766]
≥ 70%: pest or weed control at 1 ppm (Spodoptera litura) | pest or weed control at 100 ppm (Laodelphax striatellus) | pest or weed control at 1 ppm (Plutella xylostella)

O=C(Nc1cccc(C(=O)Nc2c(I)cc(C(F)(C(F)(F)F)C(F)(F)F)cc2C(F)(F)F)c1F)c1ccc(Cl)cc1Cl [6-1754]
≥ 70%: pest or weed control at 1 ppm (Spodoptera litura) | pest or weed control at 100 ppm (Laodelphax striatellus) | pest or weed control at 1 ppm (Plutella xylostella)

O=C(Nc1c(I)cc(C(F)(C(F)(F)F)C(F)(F)F)cc1C(F)(F)F)c1cccc(NC(=O)c2ccccc2F)c1 [6-425]
≥ 70%: pest or weed control at 1 ppm (Spodoptera litura) | pest or weed control at 100 ppm (Laodelphax striatellus) | pest or weed control at 1 ppm (Plutella xylostella)

CN(C(=O)c1ccc(C#N)cc1Cl)c1cccc(C(=O)Nc2c(Br)cc(C(F)(C(F)(F)F)C(F)(F)F)cc2C(F)(F)F)c1 [7-301]
≥ 70%: pest or weed control at 1 ppm (Spodoptera litura) | pest or weed control at 100 ppm (Laodelphax striatellus) | pest or weed control at 1 ppm (Plutella xylostella)

O=C(Nc1cccc(C(=O)Nc2c(Br)cc(C(F)(C(F)(F)F)C(F)(F)C(F)(F)F)cc2Br)c1)c1ccc(F)cc1 (stereo not drawn) [6-5906]
≥ 70%: pest or weed control at 1 ppm (Spodoptera litura) | pest or weed control at 100 ppm (Laodelphax striatellus) | pest or weed control at 1 ppm (Plutella xylostella)

O=C(Nc1c(Br)cc(C(F)(C(F)(F)F)C(F)(F)F)cc1C(F)(F)F)c1cccc(NC(=O)c2c(F)cccc2F)c1 [6-290]
≥ 70%: pest or weed control at 1 ppm (Spodoptera litura) | pest or weed control at 100 ppm (Laodelphax striatellus) | pest or weed control at 1 ppm (Plutella xylostella)

O=C(Nc1c(Br)cc(C(F)(C(F)(F)F)C(F)(F)F)cc1C(F)(F)F)c1ccc(F)c(NC(=O)c2cccnc2Cl)c1 [6-3384]
≥ 70%: pest or weed control at 1 ppm (Spodoptera litura) | pest or weed control at 100 ppm (Laodelphax striatellus) | pest or weed control at 1 ppm (Plutella xylostella)

CN(C(=O)c1ccccc1)c1cccc(C(=O)Nc2c(Br)cc(C(F)(C(F)(F)F)C(F)(F)C(F)(F)F)cc2Br)c1F (stereo not drawn) [7-1182, N-(2,6-dibromo-4-(perfluorobutan-2-yl)phenyl)-2-fluoro-3-(N-methylbenzamide)benzamide]
≥ 70%: pest or weed control at 1 ppm (Spodoptera litura) | pest or weed control at 100 ppm (Laodelphax striatellus) | pest or weed control at 1 ppm (Plutella xylostella)
